Results published in paper PMC3131601, “A Novel Cold-Active Lipase from Candida albicans: Cloning, Expression and Characterization of the Recombinant Enzyme” (International Journal of Molecular Sciences, 2011).

Test system: T1, Lip5-DM (recombinant Lip5, CALip5)
T1 construct: putative 14-residue signal peptide removed; secreted from Pichia pastoris X-33 (pGAPZalphaA), about 50 kDa
Assay: p-nitrophenol release at […] nm, Lineweaver-Burk
Assay type: biochemical, Candida albicans
Conditions: 100 mM Na2HPO4-NaH2PO4 pH 6.0; kinetics run at 5, 15 and 25 °C, temperature of table values not stated

Compound | Km
CCCC(=O)Oc1ccc([N+](=O)[O-])cc1 [C4, p-NP-butyrate] | 410 µM
CCCCCCCC(=O)Oc1ccc([N+](=O)[O-])cc1 [C8, p-NP-caprylate] | 270 µM
CCCCCCCCCCCC(=O)Oc1ccc([N+](=O)[O-])cc1 [C12, p-NP-laurate] | 500 µM
CCCCCCCCCCCCCCCC(=O)Oc1ccc([N+](=O)[O-])cc1 [C16, p-NP-palmitate] | 360 µM
